{"source": "paper PMC6805867", "about": "“Amphiphilic Triazine Polymer Derivatives as Antibacterial And Anti-atopic Agents in Mice Model” (Scientific Reports, 2019)", "key": {"trypsin": {"test_system": "trypsin", "experiment": "Protease stability, radial diffusion assay after tryptic digestion", "type": "in vitro ADME", "details": "trypsin 0.2 μg/mL in PBS, 37 °C (24 h, 4 h elsewhere in the source), clearance zones against E.coli and S.aureus", "protocol": "The protease stability of triazine based polymers (TZP3 and TZP5) was performed by the radial diffusion assay as described previously. Briefly, a bacteria suspension (2×10^6 CFU/mL in LB) was mixed with 0.7% agarose. This mixture was poured into a 10-cm petri dish, and it dispersed rapidly. […] The reaction was stopped by freezing with liquid nitrogen, after which 10 μL aliquots were placed in each circle paper, put on the agarose plates, and then incubated at 37 °C overnight. The diameters of the bacterial clearance zones surrounding the circle paper were measured for the quantitation of inhibitory activities."}, "[1]": {"test_system": "Multidrug-resistant Pseudomonas aeruginosa (MDRPA) CCARM 2095", "type": "cell-based", "details": "broth microdilution, 37 °C, 18–22 h", "protocol": "(§1) The bacterial strains employed in the experiment were Escherichia coli (KCTC 1682), Pseudomonas aeruginosa (KCTC 1637), Bacillus subtilis (KCTC 3068), Staphylococcus aureus (KCTC 1621), three methicillin-resistant Staphylococcus aureus (CCARM 3089, 3090 and 3095), two multidrug-resistant Pseudomonas aeruginosa (CCARM 2095 and 2109) and vancomycin-resistant Enterococcus faecium (ATCC 51559). The antimicrobial activities of polymers were determined by the broth microdilution method, and the procedures were used as previously reported. Briefly, bacteria grown to mid-logarithmic phase in LB broth were diluted to 2 × 10^6 CFU/mL in 1% peptone and added to serial two-fold dilutions of different polymers ranging from 1 to 64 μg/mL. The plates were incubated in a shaking incubator at 37 °C for 18–22 h. The minimum inhibitory concentration (MIC) was determined by confirming the absence of bacterial growth both visually and spectrophotometrically by OD600 readings taken by a microplate ELISA reader (Molecular Devices, Sunnyvale, CA, USA). All measurements were performed three times."}, "[2]": {"test_system": "Methicillin-resistant Staphylococcus aureus (MRSA) CCARM 3095", "type": "cell-based", "details": "broth microdilution, 37 °C, 18–22 h", "protocol": "as §1"}, "[3]": {"test_system": "Multidrug-resistant Pseudomonas aeruginosa (MDRPA) CCARM 2109", "type": "cell-based", "details": "broth microdilution, 37 °C, 18–22 h", "protocol": "as §1"}, "[4]": {"test_system": "Methicillin-resistant Staphylococcus aureus (MRSA) CCARM 3089", "type": "cell-based", "details": "broth microdilution, 37 °C, 18–22 h", "protocol": "as §1"}, "[5]": {"test_system": "Methicillin-resistant Staphylococcus aureus (MRSA) CCARM 3090", "type": "cell-based", "details": "broth microdilution, 37 °C, 18–22 h", "protocol": "as §1"}}, "data": [{"smiles": "CC[C@H](C)[C@H](NC(=O)CN)C(=O)NCC(=O)N[C@@H](C)C(=O)N[C@H](C(=O)N[C@@H](CC(C)C)C(=O)N[C@@H](CCCCN)C(=O)N[C@H](C(=O)N[C@@H](CC(C)C)C(=O)N[C@H](C(=O)N[C@H](C(=O)NCC(=O)N[C@@H](CC(C)C)C(=O)N1CCC[C@H]1C(=O)N[C@@H](C)C(=O)N[C@@H](CC(C)C)C(=O)N[C@H](C(=O)N[C@@H](CO)C(=O)N[C@@H](Cc1c[nH]c2ccccc12)C(=O)N[C@H](C(=O)N[C@@H](CCCCN)C(=O)N[C@@H](CCCNC(=N)N)C(=O)N[C@@H](CCCCN)C(=O)N[C@@H](CCCNC(=N)N)C(=O)N[C@@H](CCC(N)=O)C(=O)N[C@@H](CCC(N)=O)C(N)=O)[C@@H](C)CC)[C@@H](C)CC)[C@@H](C)O)[C@@H](C)O)C(C)C)C(C)C", "note": "[melittin, reference compound]", "values": [{"measurement": "antibacterial activity after incubation with trypsin", "setting": "trypsin", "result": "lose its antibacterial activity entirely"}, {"measurement": "MIC MDRPA CCARM 2095", "setting": "[1]", "result": 8, "unit": "µg/mL"}, {"measurement": "MIC MRSA CCARM 3095", "setting": "[2]", "result": 16, "unit": "µg/mL"}, {"measurement": "MIC MDRPA CCARM 2109", "setting": "[3]", "result": 8, "unit": "µg/mL"}, {"measurement": "MIC MRSA CCARM 3089", "setting": "[4]", "result": 8, "unit": "µg/mL"}, {"measurement": "MIC MRSA CCARM 3090", "setting": "[5]", "result": 8, "unit": "µg/mL"}]}]}
